# Experimental data: patent US10287300B2 (Merck Patent GmbH, priority 2012, dated 2019)
# Columns and labels:
# [1] = target: P70S6K (T412E mutant, Millipore) (Homo sapiens (Human), UniProt P23443, T412E); experiment: P70S6K enzyme assay; format: biochemical; settings: 24 μM ATP, 90 min at 25° C.
# Experimental: P70S6K inhibitor compounds were diluted and plated in 96 well plates. A reaction mixture including the following components was then added to the compound plate to initiate the enzyme reaction; P70S6K (3 nM, T412E mutant, Millipore) was mixed with 24 μM ATP in an assay buffer containing 100 mM Hepes (pH 7.5), 5 mM MgCl2, 1 mM DTT, 0.015% Brij and 1 μM of the substrate peptide FITC-AHA-AKRRRLSSLRA-OH (derived from the S6 ribosomal protein sequence, FITC=fluorescein isothiocyanate, AHA=6-aminohexanoic acid). The reaction was incubated for 90 min at 25° C., before the addition of 10 mM EDTA to stop the reaction. The proportion of substrate and product (phosphorylated) peptide was analysed on a Caliper Life Sciences Lab Chip 3000, using a pressure of −1.4 psi, and upstream and downstream voltages of −3000 and −700 respectively. Product peaks were resolved before substrate peaks on the resulting chromatograms.
# His-AKT (Full Length) = His-AKT (Full Length) (Homo sapiens (Human), UniProt P31749); experiment: AKT enzyme assay; format: biochemical; settings: 160 uM ATP, 90 min at 25° C.
# Chain of His-AKT (Full Length) (P31749 whole entry): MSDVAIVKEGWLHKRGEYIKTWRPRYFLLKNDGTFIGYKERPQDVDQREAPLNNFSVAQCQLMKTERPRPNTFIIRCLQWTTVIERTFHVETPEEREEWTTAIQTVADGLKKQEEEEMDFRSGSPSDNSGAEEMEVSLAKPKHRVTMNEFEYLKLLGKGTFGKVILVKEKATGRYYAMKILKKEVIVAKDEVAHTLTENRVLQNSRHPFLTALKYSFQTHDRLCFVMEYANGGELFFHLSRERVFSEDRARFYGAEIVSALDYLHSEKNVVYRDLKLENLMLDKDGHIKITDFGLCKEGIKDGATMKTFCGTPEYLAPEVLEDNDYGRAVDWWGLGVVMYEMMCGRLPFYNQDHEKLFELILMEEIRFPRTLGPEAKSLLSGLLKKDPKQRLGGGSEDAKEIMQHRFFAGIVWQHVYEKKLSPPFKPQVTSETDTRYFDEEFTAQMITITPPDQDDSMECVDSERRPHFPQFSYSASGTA
# Experimental: A TTP Mosquito liquid handling instrument was used to place 125 nl of the appropriate concentration of inhibitor in 100% DMSO (for a dose response curve calculation) into each well of a 384-well plate. To this reaction components were added to a final volume of 12.5 μl: • 0.1 ng/μl His-AKT (Full Length), (Invitrogen, Part # P2999, Lot #641228C). • 160 uM ATP (Fluka, 02055) • 1 mM DTT (Sigma, D0632) • 1 mM MgCl2 (Sigma, M1028) • 1 μM substrate peptide (sequence FITC-AHA-GRPRTSSFAEG-NH2), • synthesized by Tufts Peptide Synthesis service. • 100 mM HEPES pH 7.5 (Calbiochem, 391338) • 0.015% Brij-35 (Sigma, B4184)
# The reaction was incubated for 90 min at 25° C., and then stopped by the addition of 70 μl of Stop buffer (100 mM HEPES pH 7.5, 0.015% Brij-35, 10 mM EDTA (Sigma, E7889)).
# The plate was read on a Caliper LC 3000 in an Off-Chip mobility shift assay format, using the following parameters for a 12-sipper chip: screening pressure −2.3 psi, upstream voltage −500, and downstream voltage −3000. These conditions caused unphosphorylated substrate and phosphorylated product peptide to resolve as separate peaks allowing direct measurement of percentage of conversion of substrate to product. The percent conversion was plotted against concentration of inhibitor to produce a sigmoidal dose response curve, from which an IC50 was calculated.
# Chain of P70S6K (T412E mutant, Millipore) (P23443 whole entry T412E): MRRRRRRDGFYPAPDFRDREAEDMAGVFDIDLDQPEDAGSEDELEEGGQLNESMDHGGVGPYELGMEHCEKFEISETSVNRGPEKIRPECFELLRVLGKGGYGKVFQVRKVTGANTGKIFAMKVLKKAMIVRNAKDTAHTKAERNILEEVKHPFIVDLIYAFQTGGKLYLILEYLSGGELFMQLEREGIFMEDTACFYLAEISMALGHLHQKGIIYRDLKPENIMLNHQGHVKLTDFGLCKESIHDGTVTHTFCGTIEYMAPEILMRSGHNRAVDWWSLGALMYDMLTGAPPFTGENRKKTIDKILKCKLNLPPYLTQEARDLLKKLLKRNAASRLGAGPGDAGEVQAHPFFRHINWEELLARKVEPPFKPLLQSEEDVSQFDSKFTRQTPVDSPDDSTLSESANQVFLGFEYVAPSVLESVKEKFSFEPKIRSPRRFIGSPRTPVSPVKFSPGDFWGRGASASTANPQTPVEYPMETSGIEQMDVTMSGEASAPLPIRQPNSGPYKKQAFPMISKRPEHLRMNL
Structure (SMILES),IC50 [1] [nM],IC50 (His-AKT (Full Length)) [nM]
"O=C1CNc2ncnc(N3CCN(C(CN4CCCCC4)c4ccc(Cl)c(F)c4)CC3)c2N1 (stereo not drawn) [Compound A62, 4-(4-(1-(4-chloro-3-fluorophenyl)-2-(piperidin-1-yl)ethyl)piperazin-1-yl)-7,8-dihydropteridin-6(5H)-one]",> 1000,501 to 1000
"CN(C)CCNCC(c1ccc(C(F)(F)F)cc1)N1CCN(c2ncnc3c2NC(=O)CN3)CC1 (stereo not drawn) [Compound A63, 4-(4-(2((2-(dimethylamino)ethyl)amino)-1-(4-(trifluoromethyl)phenyl)-ethyl)piperazin-1-yl)-7,8-dihydropteridin-6(5H)-one]",> 1000,> 1000
"CN(C)CCNCC(c1cccc(C(F)(F)F)c1)N1CCN(c2ncnc3c2NC(=O)CN3)CC1 (stereo not drawn) [Compound A64, 4-(4-(2-((2-(dimethylamino)ethyl)amino)-1-(3-(trifluoromethyl)phenyl)-ethyl)piperazin-1-yl)-7,8-dihydropteridin-6(5H)-one]",> 1000,> 1000
"Cc1ccc(C(CNCCN(C)C)N2CCN(c3ncnc4c3NC(=O)CN4)CC2)cc1 (stereo not drawn) [Compound A65, 4-(4-(2-((2-(dimethylamino)ethyl)amino)-1-(p-tolyl)ethyl)piperazin-1-yl)-7,8-dihydropteridin-6(5H)-one]",> 1000,> 1000

# Results, then the compound that gave them:
IC50 [1] [nM],IC50 (His-AKT (Full Length)) [nM],Structure (SMILES)
> 1000,> 1000,O=C1CNc2ncnc(N3CCN(C(CN4CCCCC4)c4ccc(F)c(Cl)c4)CC3)c2N1 (stereo not drawn) [Compound A57]
> 1000,101 to 500,"CN(C)CC(c1ccc(Cl)c(F)c1)N1CCN(c2ncnc3c2NC(=O)CN3)CC1 (stereo not drawn) [Compound A58, 4-(4-(1-(4-chloro-3-fluorophenyl)-2-(dimethylamino)ethyl)piperazin-1-yl)-7,8-dihydropteridin-6(5H)-one]"
> 1000,> 1000,"CNCC(c1ccc(Cl)c(F)c1)N1CCN(c2ncnc3c2NC(=O)CN3)CC1 (stereo not drawn) [Compound A59, 4-(4-(1-(4-chloro-3-fluorophenyl)-2-(methylamino)ethyl)piperazin-1-yl)-7,8-dihydropteridin-6(5H)-one]"
> 1000,> 1000,"O=C1CNc2ncnc(N3CCN(C(CN4CCC4)c4ccc(Cl)c(F)c4)CC3)c2N1 (stereo not drawn) [Compound A60, 4-(4-(2-(azetidin-1-yl)-1-(4-chloro-3-fluorophenyl)ethyl)piperazin-1-yl)-7,8-dihydropteridin-6(5H)-one]"
> 1000,101 to 500,"O=C1CNc2ncnc(N3CCN(C(CN4CCCC4)c4ccc(Cl)c(F)c4)CC3)c2N1 (stereo not drawn) [Compound A61, 4-(4-(1-(4-chloro-3-fluorophenyl)-2-(pyrrolidin-1-yl)ethyl)piperazin-1-yl)-7,8-dihydropteridin-6(5H)-one]"
